Reference: patent US6737383B1, “Herbicidal oxadiazolidines” (priority 1999, dated 2004)

What was measured:
smallflower flatsedge = assay: Test B flood test smallflower flatsedge; type: in vivo, Cyperus difformis
Method in brief: (§1)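 Read-out is a visual response score from 0 (no effect) to 10 (complete control), assigned by comparison with untreated controls. Treatment was applied at the 2-leaf stage, and plants stayed in the greenhouse for twelve to sixteen days before scoring.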

rice = assay: Test B flood test rice; type: in vivo, Oryza sativa
Method in brief: as §1

rape = assay: Test B pre/postemergence rape; type: in vivo, Brassica napus
Method in brief: (§2)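 Response is a visual 0-to-10 score relative to untreated plants, where 0 means no effect and 10 means complete control, taken twelve to sixteen days after application. Treatments went onto soil at planting and onto foliage of 1- to 4-leaf plants, using a surfactant-containing non-phytotoxic solvent.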

wild oat = assay: Test B pre/postemergence wild oat; type: in vivo, Avena fatua
Method in brief: as §2

duck salad = assay: Test B flood test duck salad; type: in vivo, Heteranthera limosa
Method in brief: as §1

soybean = assay: Test B pre/postemergence soybean; type: in vivo, Glycine max
Method in brief: as §2

morningglory = assay: Test B pre/postemergence morningglory; type: in vivo, Ipomoea hederacea
Method in brief: as §2

sugar beet = assay: Test B pre/postemergence sugar beet; type: in vivo, Beta vulgaris
Method in brief: as §2

giant foxtail = assay: Test B pre/postemergence giant foxtail; type: in vivo, Setaria faberii
Method in brief: as §2

wheat = assay: Test B pre/postemergence wheat; type: in vivo, Triticum aestivum
Method in brief: as §2

pigweed = assay: Test B pre/postemergence pigweed; type: in vivo, Amaranthus retroflexus
Method in brief: as §2

bamyardgrass = assay: Test B flood test barnyardgrass; type: in vivo, Echinochloa crus-galli
Method in brief: as §1

cocklebur = assay: Test B pre/postemergence cocklebur; type: in vivo, Xanthium strumarium
Method in brief: as §2

velvetleaf = assay: Test B pre/postemergence velvetleaf; type: in vivo, Abutilon theophrasti
Method in brief: as §2

purple nutsedge = assay: Test B pre/postemergence purple nutsedge; type: in vivo, Cyperus rotundus
Method in brief: as §2

blackgrass = assay: Test B pre/postemergence blackgrass; type: in vivo, Alopecurus myosuroides
Method in brief: as §2

[1] = Postemergence, Rate 62 g/ha, scale 0 to 10, 0 is no effect, 10 is complete control
[2] = Rate 125 g/ha, Postemergence section (flood test species), scale 0 to 10, 0 no effect, 10 complete control
[3] = flood test, listed under Postemergence, Rate 250 g/ha, scale 0 to 10, 0 no effect, 10 complete control
[4] = Rate 31 g/ha, Postemergence section (flood test species), scale 0 to 10
[5] = Postemergence, Rate 250 g/ha, scale 0 to 10, 0 no effect, 10 complete control
[6] = Preemergence, Rate 62 g/ha, scale 0 to 10, 0 is no effect, 10 is complete control
[7] = Preemergence, Rate 125 g/ha, scale 0 to 10 (0 no effect, 10 complete control)
[8] = Preemergence, Rate 250 g/ha, scale of 0 to 10 where 0 is no effect and 10 is complete control
[9] = Preemergence, Rate 500 g/ha, scale 0 (no effect) to 10 (complete control)
[10] = Rate 125 g/ha, Postemergence, scale 0 to 10, 0 no effect, 10 complete control
[11] = Rate 500 g/ha, Postemergence, 0 to 10 scale (0 no effect, 10 complete control)
[12] = Preemergence, Rate 31 g/ha, visual rating, scale 0 to 10 (0 no effect, 10 complete control)
[13] = Rate 31 g/ha, Postemergence, scale 0 to 10

Structure (SMILES): CC(C)N(C(=O)n1oc(=O)n(-c2ccccc2OC(F)(F)F)c1=O)c1ccc(F)cc1 [Compound 14]
- S. Flatsedge plant response rating (smallflower flatsedge; [1]): 0
- S. Flatsedge plant response rating (smallflower flatsedge; [2]): 0
- S. Flatsedge plant response rating (smallflower flatsedge; [3]): 0
- Rice plant response rating (rice; [1]): 0
- Rice plant response rating (rice; [4]): 0
- Rice plant response rating (rice; [2]): 0
- Rice plant response rating (rice; [3]): 0
- Rape plant response rating (rape; [1]): 0
- Rape plant response rating (rape; [5]): 0
- Plant response rating, Rape (rape; [6]): 0
- Plant response rating, Rape (rape; [7]): 0
- Plant response rating, Rape (rape; [8]): 0
- Rape plant response rating (rape; [9]): 0
- Rape plant response rating (rape; [10]): 0
- Rape plant response rating (rape; [11]): 0
- Wild oats plant response rating (wild oat; [1]): 0
- Wild oats plant response rating (wild oat; [5]): 0
- Plant response rating, Wild oats (wild oat; [7]): 0
- Plant response rating, Wild oats (wild oat; [8]): 0
- Wild oats plant response rating (wild oat; [9]): 0
- Wild oats plant response rating (wild oat; [10]): 0
- Ducksalad plant response rating (duck salad; [1]): 0
- Ducksalad plant response rating (duck salad; [4]): 0
- Ducksalad plant response rating (duck salad; [2]): 0
- Ducksalad plant response rating (duck salad; [3]): 0
- Soybean plant response rating (soybean; [1]): 2
- Soybean plant response rating (soybean; [5]): 2
- Plant response rating, Soybean (soybean; [6]): 0
- Plant response rating, Soybean (soybean; [7]): 0
- Plant response rating, Soybean (soybean; [8]): 0
- Soybean plant response rating (soybean; [9]): 0
- Soybean plant response rating (soybean; [10]): 2
- Morningglory plant response rating (morningglory; [1]): 1
- Morningglory plant response rating (morningglory; [5]): 4
- Plant response rating, Morningglory (morningglory; [6]): 0
- Plant response rating, Morningglory (morningglory; [7]): 0
- Plant response rating, Morningglory (morningglory; [8]): 0
- Morningglory plant response rating (morningglory; [9]): 0
- Morningglory plant response rating (morningglory; [10]): 2
- Morningglory plant response rating (morningglory; [11]): 6
- Sugarbeets plant response rating (sugar beet; [1]): 0
- Sugarbeets plant response rating (sugar beet; [5]): 0
- Plant response rating, Sugarbeets (sugar beet; [6]): 0
- Plant response rating, Sugarbeets (sugar beet; [7]): 0
- Plant response rating, Sugarbeets (sugar beet; [8]): 0
- Sugarbeets plant response rating (sugar beet; [9]): 0
- Sugarbeets plant response rating (sugar beet; [10]): 0
- Giant foxtail plant response rating (giant foxtail; [1]): 0
- Giant foxtail plant response rating (giant foxtail; [5]): 0
- Plant response rating, Giant foxtail (giant foxtail; [6]): 6
- Plant response rating, Giant foxtail (giant foxtail; [7]): 9
- Plant response rating, Giant foxtail (giant foxtail; [8]): 9
- Giant foxtail plant response rating (giant foxtail; [9]): 9
- Giant foxtail plant response rating (giant foxtail; [10]): 0
- Giant foxtail plant response rating (giant foxtail; [11]): 3
- Wheat plant response rating (wheat; [1]): 0
- Wheat plant response rating (wheat; [5]): 0
- Plant response rating, Wheat (wheat; [6]): 0
- Plant response rating, Wheat (wheat; [7]): 0
- Plant response rating, Wheat (wheat; [8]): 0
- Wheat plant response rating (wheat; [9]): 0
- Wheat plant response rating (wheat; [10]): 0
- Redroot pigweed plant response rating (pigweed; [1]): 0
- Redroot pigweed plant response rating (pigweed; [5]): 3
- Plant response rating, Redroot pigweed (pigweed; [6]): 0
- Plant response rating, Redroot pigweed (pigweed; [7]): 0
- Plant response rating, Redroot pigweed (pigweed; [8]): 0
- Redroot pigweed plant response rating (pigweed; [9]): 6
- Redroot pigweed plant response rating (pigweed; [10]): 2
- Redroot pigweed plant response rating (pigweed; [11]): 6
- Barnyardgrass plant response rating (bamyardgrass; [1]): 0
- Barnyardgrass plant response rating (bamyardgrass; [4]): 0
- Barnyardgrass plant response rating (bamyardgrass; [2]): 0
- Barnyardgrass plant response rating (bamyardgrass; [3]): 0
- Cocklebur plant response rating (cocklebur; [1]): 0
- Cocklebur plant response rating (cocklebur; [5]): 0
- Plant response rating, Cocklebur (cocklebur; [6]): 0
- Plant response rating, Cocklebur (cocklebur; [7]): 0
- Plant response rating, Cocklebur (cocklebur; [8]): 0
- Cocklebur plant response rating (cocklebur; [9]): 0
- Cocklebur plant response rating (cocklebur; [10]): 0
- Cocklebur plant response rating (cocklebur; [11]): 0
- Velvetleaf plant response rating (velvetleaf; [1]): 0
- Velvetleaf plant response rating (velvetleaf; [5]): 0
- Plant response rating, Velvetleaf (velvetleaf; [6]): 0
- Plant response rating, Velvetleaf (velvetleaf; [7]): 0
- Plant response rating, Velvetleaf (velvetleaf; [8]): 0
- Velvetleaf plant response rating (velvetleaf; [9]): 0
- Velvetleaf plant response rating (velvetleaf; [10]): 0
- Nutsedge plant response rating (purple nutsedge; [1]): 0
- Nutsedge plant response rating (purple nutsedge; [5]): 0
- Plant response rating, Nutsedge (purple nutsedge; [6]): 0
- Plant response rating, Nutsedge (purple nutsedge; [7]): 0
- Plant response rating, Nutsedge (purple nutsedge; [8]): 0
- Nutsedge plant response rating (purple nutsedge; [9]): 0
- Nutsedge plant response rating (purple nutsedge; [10]): 0
- Nutsedge plant response rating (purple nutsedge; [11]): 0
- Blackgrass plant response rating (blackgrass; [1]): 0
- Blackgrass plant response rating (blackgrass; [5]): 0
- Plant response rating, Blackgrass (blackgrass; [6]): 0
- Plant response rating, Blackgrass (blackgrass; [7]): 0
- Plant response rating, Blackgrass (blackgrass; [8]): 0
- Blackgrass plant response rating (blackgrass; [9]): 2
- Blackgrass plant response rating (blackgrass; [10]): 0
- Blackgrass plant response rating (blackgrass; [11]): 3

Structure (SMILES): CC(C)N(C(=O)n1oc(=O)n(-c2ccc(F)cc2F)c1=O)c1ccc(F)cc1F [Compound 22]
- S. Flatsedge plant response rating (smallflower flatsedge; [1]): 0
- S. Flatsedge plant response rating (smallflower flatsedge; [2]): 0
- S. Flatsedge plant response rating (smallflower flatsedge; [3]): 4
- Rice plant response rating (rice; [1]): 0
- Rice plant response rating (rice; [4]): 0
- Rice plant response rating (rice; [2]): 0
- Rice plant response rating (rice; [3]): 0
- Rape plant response rating (rape; [1]): 0
- Rape plant response rating (rape; [5]): 0
- Rape plant response rating (rape; [12]): 0
- Plant response rating, Rape (rape; [6]): 0
- Plant response rating, Rape (rape; [7]): 3
- Plant response rating, Rape (rape; [8]): 3
- Rape plant response rating (rape; [13]): 0
- Rape plant response rating (rape; [10]): 0
- Wild oats plant response rating (wild oat; [1]): 0
- Wild oats plant response rating (wild oat; [5]): 1
- Wild oats plant response rating (wild oat; [12]): 0
- Plant response rating, Wild oats (wild oat; [7]): 0
- Plant response rating, Wild oats (wild oat; [8]): 0
- Wild oats plant response rating (wild oat; [10]): 0
- Ducksalad plant response rating (duck salad; [1]): 0
- Ducksalad plant response rating (duck salad; [4]): 0
- Ducksalad plant response rating (duck salad; [2]): 0
- Ducksalad plant response rating (duck salad; [3]): 0
- Soybean plant response rating (soybean; [1]): 3
- Soybean plant response rating (soybean; [5]): 4
- Soybean plant response rating (soybean; [12]): 0
- Plant response rating, Soybean (soybean; [6]): 0
- Plant response rating, Soybean (soybean; [7]): 0
- Plant response rating, Soybean (soybean; [8]): 0
- Soybean plant response rating (soybean; [10]): 3
- Morningglory plant response rating (morningglory; [1]): 0
- Morningglory plant response rating (morningglory; [5]): 2
- Morningglory plant response rating (morningglory; [12]): 0
- Plant response rating, Morningglory (morningglory; [6]): 0
- Plant response rating, Morningglory (morningglory; [7]): 0
- Plant response rating, Morningglory (morningglory; [8]): 0
- Morningglory plant response rating (morningglory; [13]): 0
- Morningglory plant response rating (morningglory; [10]): 2
- Sugarbeets plant response rating (sugar beet; [1]): 0
- Sugarbeets plant response rating (sugar beet; [5]): 0
- Sugarbeets plant response rating (sugar beet; [12]): 0
- Plant response rating, Sugarbeets (sugar beet; [6]): 0
- Plant response rating, Sugarbeets (sugar beet; [7]): 4
- Plant response rating, Sugarbeets (sugar beet; [8]): 7
- Sugarbeets plant response rating (sugar beet; [10]): 0
- Giant foxtail plant response rating (giant foxtail; [1]): 0
- Giant foxtail plant response rating (giant foxtail; [5]): 4
- Giant foxtail plant response rating (giant foxtail; [12]): 3
- Plant response rating, Giant foxtail (giant foxtail; [6]): 3
- Plant response rating, Giant foxtail (giant foxtail; [7]): 4
- Plant response rating, Giant foxtail (giant foxtail; [8]): 7
- Giant foxtail plant response rating (giant foxtail; [13]): 0
- Giant foxtail plant response rating (giant foxtail; [10]): 2
- Wheat plant response rating (wheat; [1]): 0
- Wheat plant response rating (wheat; [5]): 0
- Wheat plant response rating (wheat; [12]): 0
- Plant response rating, Wheat (wheat; [6]): 0
- Plant response rating, Wheat (wheat; [7]): 0
- Plant response rating, Wheat (wheat; [8]): 0
- Wheat plant response rating (wheat; [10]): 0
- Redroot pigweed plant response rating (pigweed; [1]): 0
- Redroot pigweed plant response rating (pigweed; [5]): 2
- Redroot pigweed plant response rating (pigweed; [12]): 0
- Plant response rating, Redroot pigweed (pigweed; [6]): 0
- Plant response rating, Redroot pigweed (pigweed; [7]): 2
- Plant response rating, Redroot pigweed (pigweed; [8]): 5
- Redroot pigweed plant response rating (pigweed; [13]): 0
- Redroot pigweed plant response rating (pigweed; [10]): 1
- Barnyardgrass plant response rating (bamyardgrass; [1]): 0
- Barnyardgrass plant response rating (bamyardgrass; [4]): 0
- Barnyardgrass plant response rating (bamyardgrass; [2]): 0
- Barnyardgrass plant response rating (bamyardgrass; [3]): 0
- Cocklebur plant response rating (cocklebur; [1]): 0
- Cocklebur plant response rating (cocklebur; [5]): 0
- Cocklebur plant response rating (cocklebur; [12]): 0
- Plant response rating, Cocklebur (cocklebur; [6]): 0
- Plant response rating, Cocklebur (cocklebur; [7]): 0
- Plant response rating, Cocklebur (cocklebur; [8]): 0
- Cocklebur plant response rating (cocklebur; [13]): 0
- Cocklebur plant response rating (cocklebur; [10]): 0
- Velvetleaf plant response rating (velvetleaf; [1]): 0
- Velvetleaf plant response rating (velvetleaf; [5]): 0
- Velvetleaf plant response rating (velvetleaf; [12]): 0
- Plant response rating, Velvetleaf (velvetleaf; [6]): 0
- Plant response rating, Velvetleaf (velvetleaf; [7]): 0
- Plant response rating, Velvetleaf (velvetleaf; [8]): 1
- Velvetleaf plant response rating (velvetleaf; [10]): 0
- Nutsedge plant response rating (purple nutsedge; [1]): 0
- Nutsedge plant response rating (purple nutsedge; [5]): 0
- Nutsedge plant response rating (purple nutsedge; [12]): 0
- Plant response rating, Nutsedge (purple nutsedge; [6]): 0
- Plant response rating, Nutsedge (purple nutsedge; [7]): 0
- Plant response rating, Nutsedge (purple nutsedge; [8]): 0
- Nutsedge plant response rating (purple nutsedge; [13]): 0
- Nutsedge plant response rating (purple nutsedge; [10]): 0
- Blackgrass plant response rating (blackgrass; [1]): 1
- Blackgrass plant response rating (blackgrass; [5]): 3
- Blackgrass plant response rating (blackgrass; [12]): 0
- Plant response rating, Blackgrass (blackgrass; [6]): 0
- Plant response rating, Blackgrass (blackgrass; [7]): 4
- Plant response rating, Blackgrass (blackgrass; [8]): 6
- Blackgrass plant response rating (blackgrass; [13]): 0
- Blackgrass plant response rating (blackgrass; [10]): 1
